According to patent US12371454B2, “Cyclic peptide compound having Kras inhibitory action” (priority 2019, dated 2025):
Starred links: 1 amine or outer side, 2 acyl side, 3 side chain; linkers in the order of their positions; H or OH if unused. Positions of bridges follow the written chain, without caps; N, C: chain ends. Non-standard residues stand in square brackets, D forms with d. Residues, ends and D or L forms follow the SMILES beside them. *: point of attachment. hPhe(3-Cl-4-CF3) = N[C@@H](CCc1ccc(C(F)(F)F)c(Cl)c1)C(=O)O; hPhe(3-F,4-CF3) = N[C@@H](CCc1ccc(C(F)(F)F)c(F)c1)C(=O)O; 3Oxa8azabicyclo(3.2.1)octane = C1CC2COCC1N2*; NMeAbu(4,4,4-F3) = CN[C@@H](CC(F)(F)F)C(=O)O; NMePhe(4-Cl) = CN[C@@H](Cc1ccc(Cl)cc1)C(=O)O; X33 = Cc1ccc(CC[C@H](N[*:1])C(=O)[*:2])cc1; NMedβ3hAla = C[C@H](CC(=O)[*:2])N(C)[*:1]; NMeAla(cPent) = CN[C@@H](CC1CCCC1)C(=O)O; NMePhe(2-F) = CN[C@@H](Cc1ccccc1F)C(=O)O; NMeGly(cPent) = CN[C@H](C(=O)O)C1CCCC1; Phe(3-I) = N[C@@H](Cc1cccc(I)c1)C(=O)O; dαMeGly(allyl) = C=CC[C@@](C)(N)C(=O)O; NMe3Pal = CN[C@@H](Cc1cccnc1)C(=O)O; Gly(cPent) = N[C@H](C(=O)O)C1CCCC1; NMeCha = CN[C@@H](CC1CCCCC1)C(=O)O; X2 = C=CC[C@](C)(N[*:1])C(=O)[*:2]; NMeCba = CN[C@@H](CC1CCC1)C(=O)O; NMeChg = CN[C@H](C(=O)O)C1CCCCC1; NMeI = CC[C@H](C)[C@H](NC)C(=O)O; NMeT = CN[C@H](C(=O)O)[C@@H](C)O; NMeD = CN[C@@H](CC(=O)O)C(=O)O; NMeL = CN[C@@H](CC(C)C)C(=O)O; NEtAla = CCN[C@@H](C)C(=O)O; NMeV = CN[C@H](C(=O)O)C(C)C; NMeS = CN[C@@H](CO)C(=O)O; Morpholide = C1CN(*)CCO1; NMeA = CN[C@@H](C)C(=O)O; Nle = CCCC[C@H](N)C(=O)O; Piperidide = C1CCN(*)CC1; Ac5c = NC1(C(=O)O)CCCC1; Aze = O=C(O)[C@@H]1CCN1; Sar = CNCC(=O)O

How the values were obtained:
[1] = tested on: Human pancreatic cancer cell line AsPC-1; assay: Measurement of AsPC-1 cell growth inhibition (AsPC-1 CGI); type: cell-based; conditions: 96 h
Outline: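 AsPC-1 cells in 15% FBS RPMI-1640 were exposed to test compound for 96 hours at 37° C, with CellTiter-Glo as endpoint.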

[2] = target: T1, Kras and SOS1 (biotin-tagged human Kras loaded with GDP, His-tagged human SOS1) (Homo sapiens, UniProt P01116, G12D); assay: Protein-protein interaction inhibition between Kras and SOS1 (KrasGl2D-SOS PPI) using AlphaScreen; type: binding; conditions: AlphaScreen; biotin-tagged human Kras loaded with GDP, His-tagged human SOS1; read-out: KRAS G12D-SOS PPI IC50
T1 construct: made in house; host or cells: E. coli (stated for Kras only)
Outline: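 Donor beads (nickel) hold His-SOS1; acceptor beads (streptavidin) hold biotin-Kras bound to GDP. Signal measured at 520-620 nm following 680 nm excitation.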

T1 sequence (P01116 1-188 isoform P01116-2 G12D): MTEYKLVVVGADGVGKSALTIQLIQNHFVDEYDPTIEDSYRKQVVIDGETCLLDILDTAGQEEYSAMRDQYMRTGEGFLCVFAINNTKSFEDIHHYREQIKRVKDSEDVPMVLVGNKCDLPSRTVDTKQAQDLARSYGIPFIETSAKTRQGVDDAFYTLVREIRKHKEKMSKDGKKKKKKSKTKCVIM

Compound | IC50 [1] | IC50 [2]
CCCC[C@@H]1NC(=O)[C@H](Cc2cccc(I)c2)NC(=O)CN(C)C(=O)[C@H](Cc2ccc(Cl)cc2)N(C)C(=O)CN(C)C(=O)CN(C)C(=O)[C@H]([C@@H](C)CC)NC(=O)[C@H](CC(C)C)N(C)C(=O)C[C@@H](C(=O)N2CCCCC2)N(C)C(=O)[C@H](CC(C)C)NC(=O)[C@H](Cc2ccccc2F)N(C)C1=O [Compound 1035] ([NMeL]I[Sar][Sar][NMePhe(4-Cl)][Sar][Phe(3-I)][Nle][NMePhe(2-F)]L[NMeD]-Piperidide; lactam N-11) | 100 to 500 nM | 11 nM
CC[C@H](C)[C@@H]1NC(=O)[C@H](COC)N(C)C(=O)C[C@@H](C(=O)N2CCCCC2)N(C)C(=O)[C@H](C2CCCCC2)N(C)C(=O)C2(CCCC2)NC(=O)[C@@H]2CCCN2C(=O)[C@H](CCc2ccc(C(F)(F)F)c(Cl)c2)NC(=O)CN(C)C(=O)[C@H](CC2CCCCC2)N(C)C(=O)CN(C)C(=O)CN(C)C1=O [Compound 1037] ([NMeS](Me)I[Sar][Sar][NMeCha][Sar][hPhe(3-Cl-4-CF3)]P[Ac5c][NMeChg][NMeD]-Piperidide; lactam N-11) | 50 to 100 nM | 0.66 nM
C=CC[C@@]1(C)NC(=O)[C@@H]2CCCN2C(=O)[C@H](CCc2ccc(C(F)(F)F)c(Cl)c2)NC(=O)CN(C)C(=O)[C@H](CC2CCCCC2)N(C)C(=O)CN(C)C(=O)CN(C)C(=O)[C@H]([C@@H](C)CC)NC(=O)[C@H](CC(C)C)N(C)C(=O)C[C@@H](C)N(C)C(=O)[C@H](C(C)C)N(C)C1=O [Compound 1038] (cyclo(I[Sar][Sar][NMeCha][Sar][hPhe(3-Cl-4-CF3)]P[dαMeGly(allyl)][NMeV][NMedβ3hAla][NMeL])) | 100 to 500 nM | 18 nM
CC[C@H](C)[C@@H]1NC(=O)[C@H](C)N(CC)C(=O)C[C@@H](C(=O)N2CCCCC2)N(C)C(=O)[C@H](C(C)C)N(C)C(=O)C2(CCCC2)NC(=O)[C@@H]2CCCN2C(=O)[C@H](CCc2ccc(C(F)(F)F)c(Cl)c2)NC(=O)CN(C)C(=O)[C@H](CC2CCCCC2)N(C)C(=O)CN(C)C(=O)CN(C)C1=O [Compound 1051] ([NEtAla]I[Sar][Sar][NMeCha][Sar][hPhe(3-Cl-4-CF3)]P[Ac5c][NMeV][NMeD]-Piperidide; lactam N-11) | 100 to 500 nM | 2.9 nM
CC[C@H](C)[C@@H]1NC(=O)[C@H](C)N(C)C(=O)C[C@@H](C(=O)N2CCCCC2)N(C)C(=O)[C@H](C2CCCCC2)N(C)C(=O)C2(CCCC2)NC(=O)[C@@H]2CCCN2C(=O)[C@H](CCc2ccc(C)cc2)NC(=O)CN(C)C(=O)[C@H](CC2CCCCC2)N(C)C(=O)CN(C)C(=O)CN(C)C1=O [Compound 1055] ([NMeA]I[Sar][Sar][NMeCha][Sar][X33]P[Ac5c][NMeChg][NMeD]-Piperidide; lactam N-11) | 100 to 500 nM | 2.2 nM
CC[C@H](C)[C@@H]1NC(=O)[C@H](CC(F)(F)F)N(C)C(=O)C[C@@H](C(=O)N2C3CCC2COC3)N(C)C(=O)[C@H](C2CCCCC2)N(C)C(=O)C2(CCCC2)NC(=O)[C@@H]2CCCN2C(=O)[C@H](CCc2ccc(C(F)(F)F)c(Cl)c2)NC(=O)CN(C)C(=O)[C@H](CC2CCCC2)N(C)C(=O)CN(C)C(=O)CN(C)C1=O [Compound 1057] ([NMeAbu(4,4,4-F3)]I[Sar][Sar][NMeAla(cPent)][Sar][hPhe(3-Cl-4-CF3)]P[Ac5c][NMeChg][NMeD]-{3Oxa8azabicyclo(3.2.1)octane}; lactam N-11) | 100 to 500 nM | 1.2 nM
CC(C)C[C@H]1C(=O)N[C@@H](C2CCCC2)C(=O)N(C)CC(=O)N(C)CC(=O)N(C)[C@@H](CC2CCCCC2)C(=O)N(C)CC(=O)N[C@@H](CCc2ccc(C(F)(F)F)c(Cl)c2)C(=O)N2CCC[C@H]2C(=O)NC2(CCCC2)C(=O)N(C)[C@@H](C(C)C)C(=O)N(C)[C@H](C(=O)N2CCCCC2)CC(=O)N1C [Compound 1064] ([NMeL][Gly(cPent)][Sar][Sar][NMeCha][Sar][hPhe(3-Cl-4-CF3)]P[Ac5c][NMeV][NMeD]-Piperidide; lactam N-11) | 100 to 500 nM | 4.3 nM
CC[C@H](C)[C@@H]1NC(=O)[C@H](CC(C)C)N(C)C(=O)C[C@@H](C(=O)N(C)C)N(C)C(=O)[C@H](C2CCCC2)N(C)C(=O)C2(CCCC2)NC(=O)[C@H](Cc2cccnc2)N(C)C(=O)[C@H](CCc2ccc(C(F)(F)F)c(Cl)c2)NC(=O)CN(C)C(=O)[C@H](CC2CCCCC2)N(C)C(=O)[C@@H]2CCN2C(=O)[C@H](C)N(C)C1=O [Compound 1071] ([NMeL]I[NMeA][Aze][NMeCha][Sar][hPhe(3-Cl-4-CF3)][NMe3Pal][Ac5c][NMeGly(cPent)][NMeD]-NMe2; lactam N-11) | 100 to 500 nM | 1.3 nM
CC[C@H](C)[C@@H]1NC(=O)[C@H](CC(C)C)N(C)C(=O)C[C@@H](C(=O)N2CCCCC2)N(C)C(=O)[C@H](C2CCCCC2)N(C)C(=O)C2(CCCC2)NC(=O)[C@@H]2CCCN2C(=O)[C@H](CCc2ccc(C(F)(F)F)c(Cl)c2)NC(=O)CN(C)C(=O)[C@H]([C@@H](C)OC)N(C)C(=O)CN(C)C(=O)CN(C)C1=O [Compound 1072] ([NMeL]I[Sar][Sar][NMeT](Me)[Sar][hPhe(3-Cl-4-CF3)]P[Ac5c][NMeChg][NMeD]-Piperidide; lactam N-11) | 100 to 500 nM | 1.2 nM
CC[C@H](C)[C@@H]1NC(=O)[C@H](CC(C)C)N(C)C(=O)C[C@@H](C(=O)N2CCCCC2)N(C)C(=O)[C@H](C2CCCC2)N(C)C(=O)C2(CCCC2)NC(=O)[C@@H]2CCCN2C(=O)[C@H](CCc2ccc(C(F)(F)F)c(Cl)c2)NC(=O)CN(C)C(=O)[C@H](CC2CCCCC2)N(C)C(=O)CN(C)C(=O)CN(C)C1=O [Compound 1073] ([NMeL]I[Sar][Sar][NMeCha][Sar][hPhe(3-Cl-4-CF3)]P[Ac5c][NMeGly(cPent)][NMeD]-Piperidide; lactam N-11) | 20 to 50 nM | 2.1 nM
CC[C@H](C)[C@@H]1NC(=O)[C@H](CC(C)C)N(C)C(=O)C[C@@H](C(=O)N2CCOCC2)N(C)C(=O)[C@H]([C@@H](C)CC)N(C)C(=O)C2(CCCC2)NC(=O)[C@@H]2CCCN2C(=O)[C@H](CCc2ccc(C(F)(F)F)c(F)c2)NC(=O)CN(C)C(=O)[C@H](C2CCCC2)N(C)C(=O)[C@@H]2CCN2C(=O)[C@H](C)N(C)C1=O [Compound 1098] ([NMeL]I[NMeA][Aze][NMeGly(cPent)][Sar][hPhe(3-F,4-CF3)]P[Ac5c][NMeI][NMeD]-Morpholide; lactam N-11) | 20 to 50 nM | 5.6 nM
C=CC[C@]1(C)NC(=O)[C@@H]2CCCN2C(=O)[C@H](CCc2ccc(C(F)(F)F)c(Cl)c2)NC(=O)CN(C)C(=O)[C@H](CC2CCCCC2)N(C)C(=O)CN(C)C(=O)CN(C)C(=O)[C@H]([C@@H](C)CC)NC(=O)[C@H](CC(C)C)N(C)C(=O)C[C@@H](C(=O)N2CCCCC2)N(C)C(=O)[C@H](C(C)C)N(C)C1=O [Compound 1109] ([NMeL]I[Sar][Sar][NMeCha][Sar][hPhe(3-Cl-4-CF3)]P[X2][NMeV][NMeD]-Piperidide; lactam N-11) | 100 to 500 nM | 23 nM
CC[C@H](C)[C@@H]1NC(=O)[C@H](CC2CCC2)N(C)C(=O)C[C@@H](C(=O)N2CCCCC2)N(C)C(=O)[C@H](C(C)C)N(C)C(=O)C2(CCCC2)NC(=O)[C@@H]2CCCN2C(=O)[C@H](CCc2ccc(C(F)(F)F)c(Cl)c2)NC(=O)CN(C)C(=O)[C@H](CC2CCCCC2)N(C)C(=O)[C@@H]2CCN2C(=O)[C@H](C)N(C)C1=O [Compound 1114] ([NMeCba]I[NMeA][Aze][NMeCha][Sar][hPhe(3-Cl-4-CF3)]P[Ac5c][NMeV][NMeD]-Piperidide; lactam N-11) | 100 to 500 nM | 11 nM
